The record followed here is US20130156845A1, “LIPID FORMULATED SINGLE STRANDED RNA” (ALNYLAM PHARMACEUTICALS, INC., priority 2010, published 2013).

e = 2'-O-(2-methoxyethyl) (MOE); {P} = phosphate; f = 2'-fluoro

Usually EC50 stands for the midpoint of the concentration-response curve. A higher EC50 goes with a less potent agent.

A short description of data set [1]: Modified ssRNA 5′-phosphate serum stability assay (Example 60). In kind it is in vitro ADME. The settings on record: full length ssRNA with 5′-terminal phosphate; 10 μM in 95% fresh mouse serum, 37° C., LC/MS. An excerpt: A serum stability assay is useful for evaluating the stability of oligomeric compounds in the presences of nucleases and other enzymes found in serum. For example, the stability of a 5′-terminal phosphate group of an oligomeric compound can be evaluated by assessing the ability of the 5′-terminal phosphate group to remain attached to the oligomeric compound in the presence of serum. Accordingly, a serum stability assay was employed to evaluate the stability of modified ssRNAs having a 5′-terminal phosphate group.
Various modified ssRNAs, shown below, having a 5′-terminal phosphate group (10 μM) were dissolved in 95% of fresh mouse serum and incubated at 37° C. Aliquots of serum (100 μL) were removed after 0, 1, 3, 6 or 24 hours of incubation times. The serum samples were immediately quenched and snap frozen. The samples were extracted by the strong anion exchange (SAX) and octadecylsilyl (C-18) columns. For each incubation time, the amount of full length modified ssRNA having a 5′-terminal phosphate group was determined by LC/MS, and the half-life of the full length modified ssRNA having a 5′ terminal phosphate group was calculated. The results are expressed as half-time (T1/2) in the table below.

A further data set relates to PTEN. Description: PTEN mRNA reduction in HeLa cells, dose response (Example 59). In kind it is cell-based, human. The settings on record: percent inhibition of PTEN mRNA, real-time PCR normalized to RIBOGREEN, 0.20-50 nM. How it is done:
When cells reached 65-75% confluency, they are treated with one or more oligomeric compounds. The oligomeric compound is mixed with LIPOFECTIN™ Invitrogen Life Technologies, Carlsbad, Calif.) in Opti-MEM™-1 reduced serum medium (Invitrogen Life Technologies, Carlsbad, Calif.) to achieve the desired concentration of the oligomeric compound(s) and a LIPOFECTIN™ concentration of 2.5 or 3 μg/mL per 100 nM oligomeric compound(s). This transfection mixture is incubated at room temperature for approximately 0.5 hours. For cells grown in 96-well plates, wells are washed once with 100 μL OPTI-MEM™-1 and then treated with 130 μL of the transfection mixture. Cells grown in 24-well plates or other standard tissue culture plates are treated similarly, using appropriate volumes of medium and oligomeric compound(s). […]
Quantitation of target mRNA levels is accomplished by real-time quantitative PCR using the ABI PRISM™ 7600, 7700, or 7900 Sequence Detection System (PE-Applied Biosystems, Foster City, Calif.) according to manufacturer's instructions. This is a closed-tube, non-gel-based, fluorescence detection system which allows high-throughput quantitation of polymerase chain reaction (PCR) products in real-time. As opposed to standard PCR in which amplification products are quantitated after the PCR is completed, products in real-time quantitative PCR are quantitated as they accumulate. […]
A general note: Real-time PCR tracks product formation cycle by cycle.

Take “P-UfUfGfUfCfUfCfUfGfGfUfCfCfUfUfAfCfUfUfAeAe (antisense UUGUCUCUGGUCCUUACUUAA; sugars from the 5' end f19 e2, 5' {P}, backbone not given here) [ISIS 404320, modified ssRNA targeting PTEN]”: the “T1/2” value in data set [1] turned out to be 4 h. This substance also displayed an EC50 with PTEN of 13.2 nM.
